# Results from US10550142B2, “Quercetin-based compound” (AMOREPACIFIC CORPORATION, priority 2016, dated 2020).
# System: skin
# Experiment: Cumulative skin irritation test, HRIPT (human repeated insult patch test)
# Assay type: in vivo
# Design: key to skin reactivity (ICDRG criteria): −: Negative (no reaction); ±: Suspicious or slight erythema, etc.; +: Weak reaction (not accompanied by vesicles), erythema, papules; ++: Severe reaction (accompanied by vesicles), erythema, papules, vesicles; +++: Strong reaction, bullae
# Conditions: for Number of subjects showing ±, + or ++ reactivity 1st: 1st patch; for Number of subjects showing ±, + or ++ reactivity 2nd: 2nd patch; for Number of subjects showing ±, + or ++ reactivity 3rd: 3rd patch; for Number of subjects showing ±, + or ++ reactivity 4th: 4th patch; for Number of subjects showing ±, + or ++ reactivity 5th: 5th patch; for Number of subjects showing ±, + or ++ reactivity 6th: 6th patch; for Number of subjects showing ±, + or ++ reactivity 7th: 7th patch; for Number of subjects showing ±, + or ++ reactivity 8th: 8th patch; for Number of subjects showing ±, + or ++ reactivity 9th: 9th patch; for Average reactivity: less than 3 = safe
# Protocol: HRIPT (human repeated insult patch test) was performed to evaluate the cumulative skin irritation of quercetin 3-O-[3-O″-(E)-p-coumaroyl][β-D-glucopyranosyl-(1→3)-O-α-L-rhamnopyranosyl-(1→6)-O-β-D-glucopyranoside] and quercetin 3-O-[3-O″-(E)-p-coumaroyl][α-L-rhamnopyranosyl-(1→6)-O-β-D-glucopyranoside] and determine the range of concentration applicable to the skin. Specifically, 15 healthy adult subjects were randomly selected, and 20 μl of a test composition (composition for the skin including an emulsifier, a stabilizer, purified water, etc. in addition to each of the above compounds) containing 0.5% by weight, 1% by weight or 3% by weight of each of the compounds was dropped into each chamber (IQ chamber, Epitest Ltd, Finland) The patch was applied to the upper right side of the back of the subject, and after 24 hours from the application, it was replaced with a new patch. In this way, a total of 9 patches were applied, 3 times a week for 3 weeks. The skin reaction was checked before and after application of each patch. The skin reaction was checked until after 48 hours from the removal of the final patch, and the average reactivity was calculated. The skin reaction was evaluated according to the criteria of the International Contact Dermatitis Research Group (ICDRG). In the above table, “novel substance 31” denotes quercetin 3-O-[3-O″-(E)-p-coumaroyl][β-D-glucopyranosyl-(1→3)-O-α-L-rhamnopyranosyl-(1→6)-O-β-D-glucopyranoside], and “novel substance 32” denotes quercetin 3-O-[3-O″-(E)-p-coumaroyl][α-L-rhamnopyranosyl-(1→6)-O-β-D-glucopyranoside.
# [1] = 0.5% by weight, line 1 of 3 (±)
# [2] = 0.5% by weight, line 2 of 3 (+)
# [3] = 0.5% by weight, line 3 of 3 (++)
smiles,measurement,setting,value
"CC1OC(OCC2OC(Oc3c(-c4ccc(O)c(O)c4)oc4cc(O)cc(O)c4c3=O)C(O)C(OC(=O)/C=C/c3ccc(O)cc3)C2O)C(O)C(O)C1O [Novel substance 32, quercetin 3-O-[3-O″-(E)-p-coumaroyl][α-L-rhamnopyranosyl-(1→6)-O-β-D-glucopyranoside]]","Number of subjects showing ±, + or ++ reactivity 1st",[1],0 number of persons
same,"Number of subjects showing ±, + or ++ reactivity 1st",[2],0 number of persons
same,"Number of subjects showing ±, + or ++ reactivity 1st",[3],0 number of persons
same,"Number of subjects showing ±, + or ++ reactivity 2nd",[1],0 number of persons
same,"Number of subjects showing ±, + or ++ reactivity 2nd",[2],0 number of persons
same,"Number of subjects showing ±, + or ++ reactivity 2nd",[3],0 number of persons
same,"Number of subjects showing ±, + or ++ reactivity 3rd",[1],0 number of persons
same,"Number of subjects showing ±, + or ++ reactivity 3rd",[2],0 number of persons
same,"Number of subjects showing ±, + or ++ reactivity 3rd",[3],0 number of persons
same,"Number of subjects showing ±, + or ++ reactivity 4th",[1],0 number of persons
same,"Number of subjects showing ±, + or ++ reactivity 4th",[2],0 number of persons
same,"Number of subjects showing ±, + or ++ reactivity 4th",[3],0 number of persons
same,"Number of subjects showing ±, + or ++ reactivity 5th",[1],0 number of persons
same,"Number of subjects showing ±, + or ++ reactivity 5th",[2],0 number of persons
same,"Number of subjects showing ±, + or ++ reactivity 5th",[3],0 number of persons
same,"Number of subjects showing ±, + or ++ reactivity 6th",[1],0 number of persons
same,"Number of subjects showing ±, + or ++ reactivity 6th",[2],0 number of persons
same,"Number of subjects showing ±, + or ++ reactivity 6th",[3],0 number of persons
same,"Number of subjects showing ±, + or ++ reactivity 7th",[1],0 number of persons
same,"Number of subjects showing ±, + or ++ reactivity 7th",[2],0 number of persons
same,"Number of subjects showing ±, + or ++ reactivity 7th",[3],0 number of persons
same,"Number of subjects showing ±, + or ++ reactivity 8th",[1],0 number of persons
same,"Number of subjects showing ±, + or ++ reactivity 8th",[2],0 number of persons
same,"Number of subjects showing ±, + or ++ reactivity 8th",[3],0 number of persons
same,"Number of subjects showing ±, + or ++ reactivity 9th",[1],0 number of persons
same,"Number of subjects showing ±, + or ++ reactivity 9th",[2],0 number of persons
same,"Number of subjects showing ±, + or ++ reactivity 9th",[3],0 number of persons
same,Average reactivity,0.5% by weight,0
same,"Number of subjects showing ±, + or ++ reactivity 1st","1% by weight, line 1 of 3 (±)",0 number of persons
same,"Number of subjects showing ±, + or ++ reactivity 1st","1% by weight, line 2 of 3 (+)",0 number of persons
same,"Number of subjects showing ±, + or ++ reactivity 1st","1% by weight, line 3 of 3 (++)",0 number of persons
same,"Number of subjects showing ±, + or ++ reactivity 2nd","1% by weight, line 1 of 3 (±)",0 number of persons
same,"Number of subjects showing ±, + or ++ reactivity 2nd","1% by weight, line 2 of 3 (+)",0 number of persons
same,"Number of subjects showing ±, + or ++ reactivity 2nd","1% by weight, line 3 of 3 (++)",0 number of persons
same,"Number of subjects showing ±, + or ++ reactivity 3rd","1% by weight, line 1 of 3 (±)",0 number of persons
same,"Number of subjects showing ±, + or ++ reactivity 3rd","1% by weight, line 2 of 3 (+)",0 number of persons
same,"Number of subjects showing ±, + or ++ reactivity 3rd","1% by weight, line 3 of 3 (++)",0 number of persons
same,"Number of subjects showing ±, + or ++ reactivity 4th","1% by weight, line 1 of 3 (±)",0 number of persons
same,"Number of subjects showing ±, + or ++ reactivity 4th","1% by weight, line 2 of 3 (+)",0 number of persons
same,"Number of subjects showing ±, + or ++ reactivity 4th","1% by weight, line 3 of 3 (++)",0 number of persons
same,"Number of subjects showing ±, + or ++ reactivity 5th","1% by weight, line 1 of 3 (±)",0 number of persons
same,"Number of subjects showing ±, + or ++ reactivity 5th","1% by weight, line 2 of 3 (+)",0 number of persons
same,"Number of subjects showing ±, + or ++ reactivity 5th","1% by weight, line 3 of 3 (++)",0 number of persons
same,"Number of subjects showing ±, + or ++ reactivity 6th","1% by weight, line 1 of 3 (±)",0 number of persons
same,"Number of subjects showing ±, + or ++ reactivity 6th","1% by weight, line 2 of 3 (+)",0 number of persons
same,"Number of subjects showing ±, + or ++ reactivity 6th","1% by weight, line 3 of 3 (++)",0 number of persons
same,"Number of subjects showing ±, + or ++ reactivity 7th","1% by weight, line 1 of 3 (±)",0 number of persons
same,"Number of subjects showing ±, + or ++ reactivity 7th","1% by weight, line 2 of 3 (+)",0 number of persons
same,"Number of subjects showing ±, + or ++ reactivity 7th","1% by weight, line 3 of 3 (++)",0 number of persons
same,"Number of subjects showing ±, + or ++ reactivity 8th","1% by weight, line 1 of 3 (±)",0 number of persons
same,"Number of subjects showing ±, + or ++ reactivity 8th","1% by weight, line 2 of 3 (+)",0 number of persons
same,"Number of subjects showing ±, + or ++ reactivity 8th","1% by weight, line 3 of 3 (++)",0 number of persons
same,"Number of subjects showing ±, + or ++ reactivity 9th","1% by weight, line 1 of 3 (±)",0 number of persons
same,"Number of subjects showing ±, + or ++ reactivity 9th","1% by weight, line 2 of 3 (+)",0 number of persons
same,"Number of subjects showing ±, + or ++ reactivity 9th","1% by weight, line 3 of 3 (++)",0 number of persons
same,Average reactivity,1% by weight,0
same,"Number of subjects showing ±, + or ++ reactivity 1st","3% by weight, line 1 of 3 (±)",0 number of persons
same,"Number of subjects showing ±, + or ++ reactivity 1st","3% by weight, line 2 of 3 (+)",0 number of persons
same,"Number of subjects showing ±, + or ++ reactivity 1st","3% by weight, line 3 of 3 (++)",0 number of persons
same,"Number of subjects showing ±, + or ++ reactivity 2nd","3% by weight, line 1 of 3 (±)",0 number of persons
same,"Number of subjects showing ±, + or ++ reactivity 2nd","3% by weight, line 2 of 3 (+)",0 number of persons
same,"Number of subjects showing ±, + or ++ reactivity 2nd","3% by weight, line 3 of 3 (++)",0 number of persons
same,"Number of subjects showing ±, + or ++ reactivity 3rd","3% by weight, line 1 of 3 (±)",0 number of persons
same,"Number of subjects showing ±, + or ++ reactivity 3rd","3% by weight, line 2 of 3 (+)",0 number of persons
same,"Number of subjects showing ±, + or ++ reactivity 3rd","3% by weight, line 3 of 3 (++)",0 number of persons
same,"Number of subjects showing ±, + or ++ reactivity 4th","3% by weight, line 1 of 3 (±)",0 number of persons
same,"Number of subjects showing ±, + or ++ reactivity 4th","3% by weight, line 2 of 3 (+)",0 number of persons
same,"Number of subjects showing ±, + or ++ reactivity 4th","3% by weight, line 3 of 3 (++)",0 number of persons
same,"Number of subjects showing ±, + or ++ reactivity 5th","3% by weight, line 1 of 3 (±)",0 number of persons
same,"Number of subjects showing ±, + or ++ reactivity 5th","3% by weight, line 2 of 3 (+)",0 number of persons
same,"Number of subjects showing ±, + or ++ reactivity 5th","3% by weight, line 3 of 3 (++)",0 number of persons
same,"Number of subjects showing ±, + or ++ reactivity 6th","3% by weight, line 1 of 3 (±)",0 number of persons
same,"Number of subjects showing ±, + or ++ reactivity 6th","3% by weight, line 2 of 3 (+)",0 number of persons
same,"Number of subjects showing ±, + or ++ reactivity 6th","3% by weight, line 3 of 3 (++)",0 number of persons
same,"Number of subjects showing ±, + or ++ reactivity 7th","3% by weight, line 1 of 3 (±)",0 number of persons
same,"Number of subjects showing ±, + or ++ reactivity 7th","3% by weight, line 2 of 3 (+)",0 number of persons
same,"Number of subjects showing ±, + or ++ reactivity 7th","3% by weight, line 3 of 3 (++)",0 number of persons
same,"Number of subjects showing ±, + or ++ reactivity 8th","3% by weight, line 1 of 3 (±)",0 number of persons
same,"Number of subjects showing ±, + or ++ reactivity 8th","3% by weight, line 2 of 3 (+)",0 number of persons
same,"Number of subjects showing ±, + or ++ reactivity 8th","3% by weight, line 3 of 3 (++)",0 number of persons
same,"Number of subjects showing ±, + or ++ reactivity 9th","3% by weight, line 1 of 3 (±)",0 number of persons
same,"Number of subjects showing ±, + or ++ reactivity 9th","3% by weight, line 2 of 3 (+)",0 number of persons
same,"Number of subjects showing ±, + or ++ reactivity 9th","3% by weight, line 3 of 3 (++)",0 number of persons
same,Average reactivity,3% by weight,0
same,skin reactivity (ICDRG criteria),"within the content range 0.5, 1, 3% by weight, 9 patches, 15 subjects",−
